Reference: ChEMBL document CHEMBL1139529, “Design of small-sized libraries by combinatorial assembly of linkers and functional groups to a given scaffold: application to the structure-based optimization of a phosphodiesterase 4 inhibitor” (J Med Chem, 2005)

Target: Phosphodiesterase 4 (Bos taurus)
Experiment: In vitro inhibition of bovine smooth muscle phosphodiesterase 4

SMILES	IC50
COc1ccc(-c2cc(Cc3ccccc3)c(O)nn2)cc1OC	8000 nM
COc1ccc(-c2cc(CCCc3ccccc3)c(O)nn2)cc1OC	> 10000 nM
COc1ccc(-c2ccc(=O)n(CCCCCCN)n2)cc1OC	20 nM
COc1ccc(-c2ccc(O)nn2)cc1OC	2000 nM

Next, values leading:

IC50	SMILES
60000 nM	COc1ccc(-c2ccc(=O)n(CCCCCCN=C(N)N)n2)cc1OC
0.9 nM	COc1ccc(-c2ccc(=O)n(CCCCCc3ccccc3)n2)cc1OC
20 nM	COc1ccc(-c2ccc(=O)n(CCCc3ccccc3)n2)cc1OC
60 nM	COc1ccc(-c2ccc(=O)n(Cc3ccccc3)n2)cc1OC
80 nM	COc1ccc(-c2ccc(=O)n(CCCCCCc3ccccc3)n2)cc1OC
